Experimental data from patent publication US5861400A, “Pharmaceutical compounds” (Xenova Limited, priority 1994, dated 1999).
Counter-ions that a name gives are not always drawn.

Assays:
Assay type in all cases: cell-based, mouse
AR 1.0 cells [1] = assay: Drug accumulation assay (tritiated daunorubicin, AR 1.0 cells); conditions: for Emax / MAX accumulation (% 100 μm VRP): 100% = accumulation with 100 μM Verapamil, compounds 100 nM to 100 μM; for Emax: read-out: MAX accumulation (% 100 μm VRP); for IC50: daunorubicin accumulation, 37° C., DNR 2 μM
Protocol: (§1) The EMT6 mouse mammary carcinoma cell line and the MDR resistant subline AR 1.0 were cultured in RPMI 1640 medium containing 10% foetal calf serum and 2mM glutamine at 37° C. in 5% CO2. Cells were passaged between 1 in 200 and 1 in 2000 in the case of the parental cell line and between 1 in 20 and 1 in 200 in the case of the MDR resistant subline, after trypsinisation (0.25% trypsin, 0.2 gl^-1, EDTA).
1. Drug accumulation assay
AR 1.0 cells were seeded into 96 well opaque culture plates (Canberra Packard). The assay medium contained a mixture of tritiated Daunorubicin (DNR), a cytotoxic agent, and unlabelled DNR (0.25μ Ci/ml; 2 μM). Compounds of formula A were serially diluted in assay medium over a range of concentrations from 100 nM to 100 μM. The cells were incubated at 37° C. for 1 hr before washing and counting of cell associated radioactivity. Each assay included a titration of the known resistance modifying agent Verapamil as positive control. Results were expressed as % maximum accumulation where 100% accumulation is that observed in the presence of 100 μM Verapamil.

AR 1.0 cells [2] = assay: Proliferation/toxicity assay, compound alone and with cytotoxic agent (sulphorhodamine B)
AR 1.0 cells [3] = assay: Potentiation of Doxorubicin toxicity (potentiation index, AR 1.0 cells); conditions: doxorubicin 0.5 nM-50 μM, four days; for Potentiation Index (at 5 μM): Conc Comp 5 μM; for Potentiation Index: Conc Comp 3 μM
Protocol: as §1
2. Potentiation of Doxorubicin toxicity
Compounds of formula A were examined for their ability to potentiate the toxicity of doxorubicin in AR 1.0 cells. In initial proliferation assays compounds were titrated against a fixed concentration of doxorubicin (0.5-1 μM) which alone is non-toxic to AR 1.0 cells. Incubations with doxorubicin were over a four day period before quantitation of proliferation using the calorimetric sulphorhodamine B assay (Skehan et al; J. Natl. Cancer Inst. 82 pp 1107-1112 (1990)).
Cells were cultured for four days with concentrations of doxorubicin over the range of 0.5 nM-50 μM in the presence of Verapramil at its maximum subtoxic level determined from previous experiments. Proliferation was quantified as described by Skehan et al, loc cit. The IC50 (concentration required to reduce proliferation to 50% of the untreated controls) for doxorubicin alone and with the Verapamil were derived and used to calculate the potentiation index (PI): […]

[4] = Mus musculus, compound alone, read-out: COMPOUND TOXICITY (IC50 μM)
[5] = cytotoxic agent (doxorubicin) 1.00 μg/ml, 5760 min, read-out: TOXICITY WITH CYTOTOXIC AGENT (IC 50 μM)
[6] = cytotoxic agent (doxorubicin) 0.50 μg/ml, 5760 min, read-out: TOXICITY WITH CYTOTOXIC AGENT (IC 50 μM)
[7] = compound alone, read-out: COMPOUND TOXICITY (IC50 μM)

Compound | Emax (AR 1.0 cells [1]; Mus musculus, 1 hr) [%] | IC50 (AR 1.0 cells [1]; Mus musculus, 1 h) [µM] | IC50 (AR 1.0 cells [2]; [4]) [µM] | other results
COc1ccc(/C=c2/c(=O)[nH]/c(=C\c3ccoc3)c(=O)n2C)cc1 [Compound 1563, (3Z,6Z)-3-(3-Furyl)methylene-6-(4-methoxybenzylidene)-1-methyl-2,5-piperazinedione] | 32.9 | – | – | –
COc1ccc(/C=c2/c(=O)[nH]/c(=C\c3cccs3)c(=O)n2C)cc1 [Compound 1564, (3Z,6Z)-6-(4-Methoxybenzylidene)-1-methyl-3-(2-thienylmethylene)-2,5-piperazinedione] | 46.3 | – | – | –
COc1ccc(/C=c2/c(=O)[nH]/c(=C\c3cn(C(=O)OC(C)(C)C)c4ccccc34)c(=O)n2C)cc1 [Compound 1565, (3Z,6Z)-6-(4-Methoxybenzylidene)-1-methyl-3-(1-tert-butoxycarbonyl-3-indolyl)methylene-2,5-piperazinedione] | 37.3 | – | – | –
Cn1c(=O)/c(=C/c2ccccc2)[nH]c(=O)/c1=C/c1cccs1 [Compound 1569, (3Z,6Z)-3-Benzylidene-1-methyl-6-(2-thienylmethylene)-2,5-piperazinedione] | 46 | – | – | –
COc1ccc(/C=c2\[nH]c(=O)/c(=C/c3ccoc3)n(C)c2=O)cc1 [Compound 1596] | 47.7 | – | – | –
COc1ccc(/C=c2\[nH]c(=O)/c(=C/c3cccs3)n(C)c2=O)cc1 [Compound 1597, (3Z,6Z)-3-(4-Methoxybenzylidene)-1-methyl-6-(2-thienylmethylene)-2,5-piperazinedione] | 59.1 | 50 | 25 | IC50 (AR 1.0 cells [2]; [5]): 6 µM
Cn1c(=O)/c(=C/c2ccccc2)[nH]c(=O)/c1=C/c1ccsc1 [Compound 1641, (3Z,6Z)-3-Benzylidene-1-methyl-6-(3-thienylmethylene)-2,5-piperazinedione] | 50.5 | – | – | –
COc1ccc(/C=c2/c(=O)n(C)/c(=C\C=Cc3ccccc3)c(=O)n2C)cc1 [Compound 1777, (3Z,6Z)-3-Cinnamylidene-6-(4-methoxybenzylidene)-1,4-dimethyl-2,5-piperazinedione] | 50 | 80 | – | –
Cn1c(=O)/c(=C/c2cn(C(=O)OC(C)(C)C)c3ccccc23)n(C)c(=O)/c1=C/c1ccccc1 [Compound 1800, (3Z,6Z)-3-Benzylidene-1,4-dimethyl-6-(1-tert-butoxycarbonyl-3-indolyl)methylene-2,5-piperazinedione] | – | 7 | 10 | Potentiation Index (at 5 μM) (AR 1.0 cells [3]): 40; IC50 (AR 1.0 cells [2]; [5]): 0.8 µM
Cn1c(=O)/c(=C/c2cn(C(=O)OC(C)(C)C)c3ccccc23)n(C)c(=O)/c1=C/c1cccs1 [Compound 1834, (3Z,6Z)-1,4-Dimethyl-3-(1-tert-butoxycarbonyl-3-indolyl)methylene-6-(2-thenylidene)-2,5-piperazinedione] | – | 5 | 10 | Potentiation Index (AR 1.0 cells [3]): 30; IC50 (AR 1.0 cells [2]; [6]): 0.8 µM
O=c1[nH]/c(=C\c2ccncc2)c(=O)n(Cc2ccccc2)/c1=C\c1ccccc1 [Compound 1839, (3Z,6Z)-1-Benzyl-6-benzylidene-3-(4-pyridyl)methylene-2,5-piperazinedione] | – | 20 | – | Potentiation Index (AR 1.0 cells [3]): 15; IC50 (AR 1.0 cells [2]; [7]): 30 µM; IC50 (AR 1.0 cells [2]; [6]): 1.5 µM
O=c1[nH]/c(=C\c2ccncc2)c(=O)n(Cc2ccccc2)/c1=C\c1ccccc1 [Compound 1840, (3Z,6Z)-1-Benzyl-6-benzylidene-3-(4-pyridyl)methylene-2,5-hydrochloride] | – | – | – | IC50 (AR 1.0 cells [1]; 1 hr): 12 µM; IC50 (AR 1.0 cells [2]; [7]): 5 µM; IC50 (AR 1.0 cells [2]; [6]): 1 µM
Cn1c(=O)/c(=C/C2CCCCC2)n(C)c(=O)/c1=C/c1ccccc1 [Compound 1871, (3Z,6Z)-3-Benzylidene-6-cyclohexylmethylene-1,4-dimethyl-2,5-piperazinedione] | – | 6 | 40 | Potentiation Index (at 5 μM) (AR 1.0 cells [3]): 20; IC50 (AR 1.0 cells [2]; [6]): 1 µM
Cn1c(=O)/c(=C/c2cn(C(=O)OC(C)(C)C)c3ccccc23)n(C)c(=O)/c1=C/c1c(Cl)cccc1Cl [Compound 1873, (3Z,6Z)-6-(2,6-dichlorobenzylidene)-3-(1-tertbutoxycarbonyl-3-indolyl)methylene-1,4-dimethyl-2,5-piperazinedione] | 56 | 5 | 8 | –
COc1ccc(/C=c2/c(=O)n(Cc3ccccc3)/c(=C\c3cn(C(=O)OC(C)(C)C)c4ccccc34)c(=O)n2C)cc1 [Compound 1874, (3Z,6Z)-4-benzyl-3-(1-tertbutoxycarbonyl-3-indolyl)methylene-6-(4-methoxybenzylidene)-1-methyl-2,5-piperazinedione] | – | 10 | – | Potentiation Index (at 5 μM) (AR 1.0 cells [3]): 20
Cn1c(=O)/c(=C/c2cn(C(=O)OC(C)(C)C)c3ccccc23)n(C)c(=O)/c1=C/c1ccoc1 [Compound 1875, (3Z,6Z)-6-(3-furylmethylene)-6-(1-tertbutoxycarbonyl-3-indolyl)methylene-1,4-dimethyl-2,5-piperazinedione] | – | 5 | 10 | IC50 (AR 1.0 cells [2]; [6]): 0.8 µM
Cn1c(=O)/c(=C/c2ccccc2[N+](=O)[O-])n(C)c(=O)/c1=C/c1cccs1 [Compound 1877, (3Z,6Z)-1,4-dimethyl-6-(2-nitrobenzylidene)-3-(2-thienylmethylene)-2,5-piperazinedione] | – | 20 | – | –
COc1ccc(/C=c2/c(=O)n(Cc3ccccc3)/c(=C\c3ccoc3)c(=O)n2C)cc1 [Compound 1880, (3Z,6Z)-4-Benzyl-3-(3-furylmethylene)-6-(4-methoxybenzylidene)-1-methyl-2,5-piperazinedione] | – | 7 | 10 | –
Cn1c(=O)/c(=C/c2cn(C(=O)OC(C)(C)C)c3ccccc23)nc(OCCCN2C(=O)c3ccccc3C2=O)/c1=C/c1ccccc1 [Compound 1895, (3Z,6Z)-6-Benzylidene-1-methyl-5-(3-phthalimidopropoxy)-3-(l-tert-butoxycarbonyl-3-indolyl)methylene-3,6-dihydro-2-pyrazinone] | 12 | – | – | –
Cn1c(=O)/c(=C/c2c[nH]c3ccccc23)n(C)c(=O)/c1=C/c1ccccc1 [Compound 1896, (3Z,6Z)-3-Benzylidene-6-(3-indoly)methylene-1,4-dimethyl-2,5-piperazinedione] | – | 12 | 30 | IC50 (AR 1.0 cells [2]; [6]): 4 µM
Cn1c(=O)/c(=C/c2cn(CN3C(=O)c4ccccc4C3=O)c3ccccc23)n(C)c(=O)/c1=C/c1ccccc1 [Compound 1897] | – | 3 | 50 | Potentiation Index (at 5 μM) (AR 1.0 cells [3]): 75; IC50 (AR 1.0 cells [2]; [6]): 1.5 µM
Cn1c(=O)/c(=C/c2ccccc2)n(CCCN2C(=O)CCC2=O)c(=O)/c1=C/c1ccccc1 [Compound 1932, (3Z,6Z)-3,6-Dibenzylidene-4-methyl-1-(3-succinimidopropyl)-2,5-piperazinedione] | – | 10 | – | –
Cn1c(=O)/c(=C/c2ccccc2)nc(OCCCN2C(=O)CCC2=O)/c1=C/c1ccccc1 [Compound 1934, (3Z,6Z)-3,6-Dibenzylidene-1-methyl-5-(3-succinmidopropoxy)-3,6-dihydro-2-pyrazinone] | – | 1 | – | –
Cn1c(=O)/c(=C/c2ccccc2)nc(OCCCN2C(=O)C(=O)c3ccccc32)/c1=C/c1ccccc1 [Compound 1935, (3Z,6Z)-3,6-Dibenzylidene-5-(2,3-dioxo-1-indolinyl)propoxy-1-methyl-3,6-dihydro-2-pyrazinone] | – | 6 | – | –
COc1cccc2c1C(=O)c1c(O)c3c(c(O)c1C2=O)C[C@@](O)(C(=O)CO)C[C@@H]3O[C@H]1C[C@H](N)[C@H](O)[C@H](C)O1 [doxorubicin, reference compound] | – | – | – | toxicity of doxorubicin alone to AR 1.0 cells (AR 1.0 cells [2]; 0.5-1 μM, alone): non-toxic
(3Z,6Z)-3-Benzylidene-6-(2-furyl)-1,4-dimethyl-2,5-piperazinedione [Compound 1799] | – | – | – | MAX accumulation (% 100 μm VRP) (AR 1.0 cells [1]; 1 hr): 40.0%
(3Z,6Z)-6-Benzylidene-1-methyl-3-(1-tert-butoxycarbonyl-3-(l-tert-butoxycarbonyl-3-indolyl)methylene-2,5-piperazinedione [Compound 1894] | – | – | – | MAX accumulation (% 100 μm VRP) (AR 1.0 cells [1]; 1 hr): 36.0%
(3Z,6Z)-6-Benzylidene-3-furylidene-1,4-dimethyl-2,5-piperazinedione [Compound 1836] | – | – | – | MAX accumulation (% 100 μm VRP) (AR 1.0 cells [1]; 1 hr): 14.0%
